Entries after “also recorded” stand apart in the source; their conditions may differ. Counter-ions that a name gives are not always drawn.
Columns and labels:
[1] = test system: PCP-induced NOR deficits in sub-chronic PCP treated rats; test: Novel object recognition (NOR) test after subchronic PCP treatment; format: in vivo, Female Long-Evans rats; details: for Acquisition (sec) Left, exploration time / Acquisition (sec) Right, exploration time / Retention (sec) Familiar, exploration time / Retention (sec) Novel, exploration time: mean±SEM; for Effective dose for reversing PCP-induced NOR deficits / Sub-effective dose in PCP-induced NOR deficit: single agent, acute administration after subchronic PCP
Experimental: Female Long-Evans rats received vehicle or PCP (2 mg/kg, i.p.) twice daily for 7 days, followed by a 7-day washout period (n=6-9/group). Phencyclidine (PCP) which is known to induce schizophrenia-like symptoms in human normal subjects and to exacerbate symptoms in patients with schizophrenia was dissolved in distilled water and administered in a volume of 1 ml/kg.
On the test day, in the first set of experiments, lurasidone HCl (0.03 and 0.1 mg/kg; produced by Dainippon Sumitomo Pharma Co., Ltd.), clozapine (0.3 mg/kg), LY379268 (1 mg/kg; Tocris Bioscience) alone, or haloperidol (0.1 mg/kg), pimavanserin (3 mg/kg), lurasidone HCl (0.03 mg/kg), clozapine (0.1 mg/kg) in combination with LY379268 (1 mg/kg) were administered intraperitoneally in a volume of 1 ml/kg, 30 min before the novel object recognition (NOR) test. In the second set of experiments, LY404039 (1 mg/kg; produced by Dainippon Sumitomo Pharma Co., Ltd.) alone was orally administered in a volume of 4 ml/kg 60 min before the novel object recognition (NOR) test. For combination with lurasidone HCl, LY404039 (1 mg/kg, p.o.) and lurasidone HCl (0.03 mg/kg, i.p.) were administered 60 min and 30 min before the novel object recognition (NOR) test, respectively. In the third set of experiments, BINA (30 mg/kg; produced by Dainippon Sumitomo Pharma Co., Ltd.) alone or BINA (30 mg/kg) in combination with lurasidone HCl (0.03 mg/kg) was administered intraperitoneally in a volume of 1 ml/kg 30 min before the novel object recognition (NOR) test.
Haloperidol, pimavanserin, and LY404039 were dissolved in distilled water. Lurasidone HCl was dissolved 0.5% methylcellulose, 0.2% Tween 80. Clozapine was dissolved in a small amount of 0.1 M phosphoric acid, and the pH was adjusted to 6 to 7 with 0.1 N NaOH. LY379268 was dissolved in saline. BINA was dissolved in 10% Tween 80, 10% 1N NaOH, and the pH was adjusted to 7 with 1N HCl.
The object recognition test was performed in an open field comprising a square box made of Plexiglas (52/52/31 cm) placed 37 cm above the floor on an immoveable stand. The floor of the box was white with black gridlines forming nine identical squares on it. All other walls were black. A video camera connected to a video recorder and monitor was positioned above the box. The objects used for the test consisting of four heavy pyramidal structures made of metal or Perspex that could not be displaced by the animals. Care was taken to ensure that these objects were not of any natural significance to the rats.
Testing was carried out according to a previously validated method (Grayson et al., Behay. Brain Res. 2007 184, 31-38; Snigdha et al., J. Pharmacol. Exp. Ther., 2010 332 (2), 622-31). The rats were familiarized to the test environment and NOR arena before the test day. Habituation consisting of placing the subjects in the empty NOR arena for 1 h, on the day before the test day (day 1). Before behavioral testing on day 2, rats were given a further 3-min habituation. For each experimental trial after the 3-min habituation period, the rats were given two 3-min trials (T1 and T2), separated by a 1-min intertrial interval in the home cage during which the objects were changed and the arena was cleaned. In Trial 1 (T1) or the acquisition trial, the animals were allowed to explore two identical objects (A1 and A2) for 3 min. In the second trial (T2) or the retention trial, the animals explored a familiar object (A) from T1 and a novel object (B) for 3 min. The familiar object presented during T2 was a duplicate of the object presented in T1 to avoid any olfactory trails. Each rat was tested three or four times in the NOR paradigm. To reduce carryover effects, a 7-day washout period was given between each of the test sessions. The criterion for continuing to test the rats was based on mean total exploration time in the acquisition or retention phase 5 seconds. […] This happened rarely and not enough to affect the ability to use the remaining animals for analysis. […]

[2] = molecular target: T1, noradrenaline α2C receptor (Homo sapiens, UniProt P18825); details: cited from earlier work
T1 sequence (P18825 1-462): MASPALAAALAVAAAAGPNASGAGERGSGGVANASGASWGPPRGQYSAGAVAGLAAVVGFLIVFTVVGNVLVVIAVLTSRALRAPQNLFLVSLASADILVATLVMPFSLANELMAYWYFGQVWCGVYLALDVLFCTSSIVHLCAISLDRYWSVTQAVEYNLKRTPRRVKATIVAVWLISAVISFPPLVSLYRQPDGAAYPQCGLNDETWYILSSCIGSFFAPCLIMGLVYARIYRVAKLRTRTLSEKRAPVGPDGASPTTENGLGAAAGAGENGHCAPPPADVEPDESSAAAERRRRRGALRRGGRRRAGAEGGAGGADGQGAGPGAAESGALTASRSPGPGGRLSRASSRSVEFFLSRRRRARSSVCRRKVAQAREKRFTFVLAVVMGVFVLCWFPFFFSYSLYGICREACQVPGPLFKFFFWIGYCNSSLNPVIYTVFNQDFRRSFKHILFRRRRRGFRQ

serotonin 5-HT7 receptor = serotonin 5-HT7 receptor (Homo sapiens, UniProt P34969); details: cited from earlier work
Sequence of serotonin 5-HT7 receptor (P34969 whole entry): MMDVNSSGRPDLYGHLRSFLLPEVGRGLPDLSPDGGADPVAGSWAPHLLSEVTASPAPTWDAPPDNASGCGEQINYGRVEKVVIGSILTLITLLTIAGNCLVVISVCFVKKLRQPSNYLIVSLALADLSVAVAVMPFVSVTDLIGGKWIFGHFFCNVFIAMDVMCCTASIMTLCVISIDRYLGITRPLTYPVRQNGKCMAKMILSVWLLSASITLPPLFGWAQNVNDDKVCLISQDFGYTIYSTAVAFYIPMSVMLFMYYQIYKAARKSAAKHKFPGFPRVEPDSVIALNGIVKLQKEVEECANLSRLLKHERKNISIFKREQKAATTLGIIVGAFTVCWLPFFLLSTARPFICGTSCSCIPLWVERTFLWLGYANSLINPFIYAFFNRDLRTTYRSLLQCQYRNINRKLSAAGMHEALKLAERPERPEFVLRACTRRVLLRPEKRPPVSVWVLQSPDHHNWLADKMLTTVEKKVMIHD

[3] = molecular target: T2, serotonin 5-HT1A receptor (Homo sapiens, UniProt P08908); details: cited from earlier work
T2 sequence (P08908 1-422): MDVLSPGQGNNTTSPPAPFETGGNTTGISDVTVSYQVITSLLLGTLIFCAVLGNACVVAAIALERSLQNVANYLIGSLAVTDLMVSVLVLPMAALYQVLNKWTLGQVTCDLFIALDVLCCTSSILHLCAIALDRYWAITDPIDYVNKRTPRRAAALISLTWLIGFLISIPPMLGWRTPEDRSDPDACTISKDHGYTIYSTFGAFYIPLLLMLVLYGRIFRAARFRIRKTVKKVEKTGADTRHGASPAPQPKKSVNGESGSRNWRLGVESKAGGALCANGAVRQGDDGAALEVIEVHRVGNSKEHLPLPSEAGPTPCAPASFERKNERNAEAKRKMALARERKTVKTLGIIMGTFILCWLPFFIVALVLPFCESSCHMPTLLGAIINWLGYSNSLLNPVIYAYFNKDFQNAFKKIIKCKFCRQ

[4] = molecular target: serotonin 5-HT2A receptor (Homo sapiens, UniProt P28223); details: cited from earlier work
Sequence of serotonin 5-HT2A receptor (P28223 whole entry): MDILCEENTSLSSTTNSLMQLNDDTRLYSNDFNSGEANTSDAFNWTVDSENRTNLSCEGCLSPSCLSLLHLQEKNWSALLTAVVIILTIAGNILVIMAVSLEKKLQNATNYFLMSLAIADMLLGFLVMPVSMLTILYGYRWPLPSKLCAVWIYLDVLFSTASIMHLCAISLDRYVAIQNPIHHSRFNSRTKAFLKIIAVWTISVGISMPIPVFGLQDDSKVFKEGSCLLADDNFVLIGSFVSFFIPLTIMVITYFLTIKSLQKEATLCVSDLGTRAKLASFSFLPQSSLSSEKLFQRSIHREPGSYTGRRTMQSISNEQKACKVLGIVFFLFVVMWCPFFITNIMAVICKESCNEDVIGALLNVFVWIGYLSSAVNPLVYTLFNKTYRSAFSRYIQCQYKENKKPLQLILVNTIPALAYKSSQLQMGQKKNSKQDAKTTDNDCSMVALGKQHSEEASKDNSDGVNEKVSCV

dopamine D2 receptor = dopamine D2 receptor (Homo sapiens, UniProt P14416); details: cited from earlier work
Sequence of dopamine D2 receptor (P14416 whole entry): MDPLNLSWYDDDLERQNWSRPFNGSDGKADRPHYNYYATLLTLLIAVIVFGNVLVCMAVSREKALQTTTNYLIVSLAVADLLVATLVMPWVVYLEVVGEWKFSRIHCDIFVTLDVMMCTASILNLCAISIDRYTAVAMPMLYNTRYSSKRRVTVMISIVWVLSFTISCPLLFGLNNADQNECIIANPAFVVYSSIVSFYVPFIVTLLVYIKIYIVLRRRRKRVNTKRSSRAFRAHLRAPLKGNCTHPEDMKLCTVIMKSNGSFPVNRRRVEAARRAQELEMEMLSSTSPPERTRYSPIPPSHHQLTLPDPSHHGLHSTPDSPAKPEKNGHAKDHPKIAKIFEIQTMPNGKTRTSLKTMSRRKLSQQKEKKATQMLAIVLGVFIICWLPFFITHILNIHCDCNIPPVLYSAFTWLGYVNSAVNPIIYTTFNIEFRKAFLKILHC

histamine H1 receptor = histamine H1 receptor (Homo sapiens, UniProt P35367); details: cited from earlier work
Sequence of histamine H1 receptor (P35367 whole entry): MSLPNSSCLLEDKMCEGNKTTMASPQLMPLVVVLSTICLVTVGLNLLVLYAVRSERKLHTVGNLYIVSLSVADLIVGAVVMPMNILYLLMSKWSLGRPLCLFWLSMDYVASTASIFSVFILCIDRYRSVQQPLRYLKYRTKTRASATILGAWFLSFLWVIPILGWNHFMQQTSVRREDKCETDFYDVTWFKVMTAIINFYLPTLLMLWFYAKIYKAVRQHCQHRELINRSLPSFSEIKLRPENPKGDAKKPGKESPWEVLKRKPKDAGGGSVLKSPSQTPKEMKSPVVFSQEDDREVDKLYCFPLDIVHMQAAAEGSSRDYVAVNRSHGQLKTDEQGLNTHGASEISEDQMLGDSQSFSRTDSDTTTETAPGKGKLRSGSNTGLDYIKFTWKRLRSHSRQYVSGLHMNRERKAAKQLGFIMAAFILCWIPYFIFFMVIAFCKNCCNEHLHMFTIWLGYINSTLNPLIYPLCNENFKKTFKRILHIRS

muscarinic M1 receptor = molecular target: T3, muscarinic M1 receptor (Homo sapiens, UniProt P11229); details: cited from earlier work
T3 sequence (P11229 1-460): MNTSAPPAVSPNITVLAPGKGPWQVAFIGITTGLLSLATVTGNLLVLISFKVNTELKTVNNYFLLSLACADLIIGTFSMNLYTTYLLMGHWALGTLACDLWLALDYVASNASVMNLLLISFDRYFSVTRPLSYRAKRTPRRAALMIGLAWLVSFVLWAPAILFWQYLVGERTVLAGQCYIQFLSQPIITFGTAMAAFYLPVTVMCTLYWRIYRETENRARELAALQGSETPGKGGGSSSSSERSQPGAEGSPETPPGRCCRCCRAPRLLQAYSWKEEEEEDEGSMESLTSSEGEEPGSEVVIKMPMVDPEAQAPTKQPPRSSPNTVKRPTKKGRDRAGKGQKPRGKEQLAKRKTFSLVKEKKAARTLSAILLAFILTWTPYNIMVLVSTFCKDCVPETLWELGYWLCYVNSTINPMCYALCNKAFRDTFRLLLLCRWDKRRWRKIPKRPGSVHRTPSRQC

[5] = PCP + BINA 30 mg/kg i.p. 30 min before NOR, n=7 to 9
[6] = PCP + clozapine 0.1 mg/kg, n=6 to 8
[7] = PCP + clozapine 0.3 mg/kg i.p. 30 min before NOR, n=6 to 8
[8] = PCP + LY379268 1 mg/kg i.p. 30 min before NOR, n=6 to 8
[9] = PCP + LY404039 1 mg/kg p.o. 60 min before NOR, n=7 to 8
[10] = PCP + lurasidone HCl 0.03 mg/kg i.p. 30 min before NOR, n=7 to 8
[11] = PCP + lurasidone HCl 0.1 mg/kg i.p. 30 min before NOR, n=7 to 8

Cc1c(OCc2cccc(-c3ccc(C(=O)O)cc3)c2)cc2c(c1C)C(=O)C(C1CCCC1)C2 (stereo not shown) [BINA, 3′-(2-Cyclopentyl-6,7-dimethyl-1-oxoindan-5-yloxy-methyl)biphenyl-4-carboxylic acid]
Effect on PCP-induced NOR deficits ([1]; BINA alone 30 mg/kg i.p.): did not attenuate the PCP-induced NOR deficits; also recorded: did not improve the PCP-induced deficit in NOR
Acquisition (sec) Left, exploration time [1, 5]: 9.8 ± 1.5 s
Acquisition (sec) Right, exploration time [1, 5]: 10.7 ± 2.0 s
Retention (sec) Familiar, exploration time [1, 5]: 6.0 ± 1.1 s
Retention (sec) Novel, exploration time [1, 5]: 7.9 ± 1.0 s

CN1CCN(C2=Nc3cc(Cl)ccc3Nc3ccccc32)CC1 [Clozapine]
Acquisition (sec) Left, exploration time [1, 6]: 12.7 ± 3.5 s
Acquisition (sec) Right, exploration time [1, 6]: 10.6 ± 2.1 s
Retention (sec) Familiar, exploration time [1, 6]: 9.1 ± 1.9 s
Retention (sec) Novel, exploration time [1, 6]: 11.0 ± 2.8 s
Acquisition (sec) Left, exploration time [1, 7]: 13.1 ± 2.9 s
Acquisition (sec) Right, exploration time [1, 7]: 11.4 ± 2.5 s
Retention (sec) Familiar, exploration time [1, 7]: 7.3 ± 1.7 s
Retention (sec) Novel, exploration time [1, 7]: 16.3 ± 2.8 s
Effective dose for reversing PCP-induced NOR deficits [1]: 0.3 mg/kg
Sub-effective dose in PCP-induced NOR deficit [1]: 0.1 mg/kg

N[C@@]1(C(=O)O)CO[C@H]2[C@H](C(=O)O)[C@H]21 [LY379268, (1R,4R,5S,6R)-4-Amino-2-oxabicyclo[3.1.0]hexane-4,6-dicarboxylic acid]
Effect on PCP-induced NOR deficits ([1]; LY379268 alone 1 mg/kg i.p.): did not attenuate the PCP-induced NOR deficits; also recorded: did not attenuate the PCP-induced deficit in NOR
Acquisition (sec) Left, exploration time [1, 8]: 12.4 ± 2.6 s
Acquisition (sec) Right, exploration time [1, 8]: 11.0 ± 4.2 s
Retention (sec) Familiar, exploration time [1, 8]: 8.3 ± 1.5 s
Retention (sec) Novel, exploration time [1, 8]: 9.7 ± 2.2 s

N[C@@]1(C(=O)O)CS(=O)(=O)[C@H]2[C@H](C(=O)O)[C@H]21 [LY404039, (−)-(1R,4S,5S,6S)-4-Amino-2-thiabicyclo[3.1.0]hexane-4,6-dicarboxylic acid S,S-dioxide]
Effect on PCP-induced NOR deficits ([1]; LY404039 alone 1 mg/kg p.o.): did not attenuate the PCP-induced NOR deficits; also recorded: did not improve the PCP-induced deficit in NOR
Acquisition (sec) Left, exploration time [1, 9]: 9.3 ± 0.8 s
Acquisition (sec) Right, exploration time [1, 9]: 8.4 ± 0.9 s
Retention (sec) Familiar, exploration time [1, 9]: 5.5 ± 1.1 s
Retention (sec) Novel, exploration time [1, 9]: 7.3 ± 0.8 s

O=C1[C@@H]2[C@H]3CC[C@H](C3)[C@@H]2C(=O)N1C[C@@H]1CCCC[C@H]1CN1CCN(c2nsc3ccccc23)CC1 [Lurasidone HCl]
Acquisition (sec) Left, exploration time [1, 10]: 11.4 ± 3.1 s
Acquisition (sec) Right, exploration time [1, 10]: 8.3 ± 1.8 s
Retention (sec) Familiar, exploration time [1, 10]: 7.6 ± 2.3 s
Retention (sec) Novel, exploration time [1, 10]: 8.9 ± 1.7 s
Acquisition (sec) Left, exploration time [1, 11]: 10.9 ± 1.3 s
Acquisition (sec) Right, exploration time [1, 11]: 10.9 ± 0.8 s
Retention (sec) Familiar, exploration time [1, 11]: 4.6 ± 1.0 s
Retention (sec) Novel, exploration time [1, 11]: 11.4 ± 2.2 s
Effective dose for reversing PCP-induced NOR deficits [1]: 0.1 mg/kg

O=C1[C@@H]2[C@H]3CC[C@H](C3)[C@@H]2C(=O)N1C[C@@H]1CCCC[C@H]1CN1CCN(c2nsc3ccccc23)CC1 [Lurasidone, (3aR,4S,7R,7aS)-2-{(1R,2R)-2-[4-(1,2-benzisothiazol-3-yl)piperazin-1-ylmethyl]cyclo-hexylmethyl}hexahydro-4,7-methano-2H-isoindole-1,3-dione]
Affinity for noradrenaline α2C receptors [2]: high affinity
Affinity for serotonin 5-HT7 receptors (serotonin 5-HT7 receptor): high affinity
Affinity for serotonin 5-HT1A receptors [3]: high affinity
Affinity for serotonin 5-HT2A receptors [4]: high affinity
Affinity for dopamine D2 receptors (dopamine D2 receptor): high affinity
Affinity for histamine H1 receptors (histamine H1 receptor): minimal to no affinity
Affinity for muscarinic M1 receptors (muscarinic M1 receptor): minimal to no affinity
Effective dose for reversing PCP-induced NOR deficits [1]: 0.1 mg/kg
Sub-effective dose in PCP-induced NOR deficit [1]: 0.03 mg/kg

Reference: patent US8735397B2, “Method for treating schizophrenia and related diseases” (Vanderbilt University, priority 2010, dated 2014)
